Data: PMC8387997 (ACS Omega, 2021)
Entries after “also recorded” stand apart in the source; their conditions may differ.

Assays:
SMARCA2B = SMARCA2B (Homo sapiens, UniProt P51531); test: bromoSCAN; type: binding
PB1(2) = PB1(2) (Homo sapiens, UniProt Q86U86); test: bromoSCAN; type: binding
PB1(5) = PB1(5) (Homo sapiens, UniProt Q86U86); test: bromoSCAN; type: binding; conditions: for selectivity for PB1(5) over SMARCA2B: from bromoSCAN KD values
BRD9 = BRD9 versus other bromodomains; cited from earlier work
[1] = tested on: panel of 32 bromodomains, including BET bromodomains; test: bromoMAX panel screen, Eurofins; type: binding; conditions: screened at 10 μM against 32 bromodomains

Chain of PB1(2) (Q86U86 177-287 limits assumed): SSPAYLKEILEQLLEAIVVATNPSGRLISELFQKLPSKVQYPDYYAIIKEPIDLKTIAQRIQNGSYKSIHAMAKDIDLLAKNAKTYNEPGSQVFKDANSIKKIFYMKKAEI
Chain of PB1(5) (Q86U86 653-763 limits assumed): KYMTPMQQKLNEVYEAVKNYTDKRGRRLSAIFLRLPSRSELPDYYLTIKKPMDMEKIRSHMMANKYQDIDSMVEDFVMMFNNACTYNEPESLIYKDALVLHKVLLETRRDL
Chain of SMARCA2B (P51531 1-1572 isoform P51531-2): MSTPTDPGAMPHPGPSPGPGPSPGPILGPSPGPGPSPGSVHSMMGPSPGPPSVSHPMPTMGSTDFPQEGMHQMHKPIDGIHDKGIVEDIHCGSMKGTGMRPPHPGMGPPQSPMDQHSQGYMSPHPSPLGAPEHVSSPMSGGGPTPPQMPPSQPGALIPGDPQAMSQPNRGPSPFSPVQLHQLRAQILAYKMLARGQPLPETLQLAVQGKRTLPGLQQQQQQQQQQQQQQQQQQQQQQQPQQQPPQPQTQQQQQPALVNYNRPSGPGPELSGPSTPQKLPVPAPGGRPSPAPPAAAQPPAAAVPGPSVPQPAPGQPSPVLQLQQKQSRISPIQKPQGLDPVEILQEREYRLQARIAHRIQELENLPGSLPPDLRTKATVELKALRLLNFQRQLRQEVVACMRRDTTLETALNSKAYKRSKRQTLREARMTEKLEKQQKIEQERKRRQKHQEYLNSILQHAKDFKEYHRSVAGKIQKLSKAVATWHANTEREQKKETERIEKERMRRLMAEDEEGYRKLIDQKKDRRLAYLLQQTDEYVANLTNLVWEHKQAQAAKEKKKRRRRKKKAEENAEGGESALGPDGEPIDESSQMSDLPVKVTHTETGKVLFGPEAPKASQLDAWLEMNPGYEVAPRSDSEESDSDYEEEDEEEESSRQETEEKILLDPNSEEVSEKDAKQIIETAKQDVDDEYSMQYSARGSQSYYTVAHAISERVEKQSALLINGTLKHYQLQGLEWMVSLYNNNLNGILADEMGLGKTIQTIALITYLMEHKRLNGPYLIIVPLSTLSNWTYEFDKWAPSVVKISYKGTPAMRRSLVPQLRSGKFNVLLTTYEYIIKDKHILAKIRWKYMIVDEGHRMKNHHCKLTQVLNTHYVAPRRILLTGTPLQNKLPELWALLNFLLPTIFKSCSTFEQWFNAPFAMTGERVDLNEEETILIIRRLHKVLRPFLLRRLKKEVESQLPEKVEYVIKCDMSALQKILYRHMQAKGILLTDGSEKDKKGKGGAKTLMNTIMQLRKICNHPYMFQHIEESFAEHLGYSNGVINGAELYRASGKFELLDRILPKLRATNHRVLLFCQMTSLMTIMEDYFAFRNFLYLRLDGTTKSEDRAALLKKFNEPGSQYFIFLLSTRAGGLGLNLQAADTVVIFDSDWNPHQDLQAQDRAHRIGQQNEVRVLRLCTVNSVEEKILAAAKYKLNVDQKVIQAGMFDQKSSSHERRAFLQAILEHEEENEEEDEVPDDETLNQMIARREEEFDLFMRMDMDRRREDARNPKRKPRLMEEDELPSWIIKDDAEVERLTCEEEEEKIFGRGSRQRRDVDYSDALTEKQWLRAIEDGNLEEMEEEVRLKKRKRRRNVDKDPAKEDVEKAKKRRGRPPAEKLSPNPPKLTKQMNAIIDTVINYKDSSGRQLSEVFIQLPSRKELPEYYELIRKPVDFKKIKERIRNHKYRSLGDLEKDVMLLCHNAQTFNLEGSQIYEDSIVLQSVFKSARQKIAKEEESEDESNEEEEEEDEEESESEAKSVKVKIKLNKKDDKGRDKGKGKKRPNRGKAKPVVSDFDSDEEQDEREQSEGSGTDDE

CCC(/C=C1\CCCn2c1nc(=O)c1c(Cl)cccc12)CC [Compound 21, (E)-7-Chloro-4-(2-ethylbutylidene)-1,2,3,4-tetrahydro-6H-pyrido[1,2-a]quinazolin-6-one]
Kd (SMARCA2B): 26000 nM
Kd (PB1(2)): 5400 nM
Kd (PB1(5)): 1100 nM
selectivity for PB1(5) over SMARCA2B (PB1(5)): ~24 fold

CCn1cc(-c2cccc(C(F)(F)F)c2)c2sc(C(=N)NC3CCS(=O)(=O)CC3)cc2c1=O [I-BRD9]
selectivity over a panel of other bromodomains (BRD9): more than 70 fold

CCC(CC)C1CC12CCn1c2nc(=O)c2c(Cl)cccc21 (centres unmarked) [LM146, 6′-Chloro-2-(pentan-3-yl)-1′,2′-dihydro-5′H-spiro[cyclopropane-1,3′-pyrrolo[1,2-a]quinazolin]-5′-one]
Kd (SMARCA2B): 2100 nM
Kd (PB1(2)): 110 nM
selectivity for PB1(2) over SMARCA2B (PB1(2); from bromoSCAN KD values): ~19 fold
binding profile in bromoMAX panel [1]: does not interact with bromodomains outside of sub-family VIII; also recorded: only binds to bromodomains within the sub-family VIII; also recorded: no binding to any bromodomains outside the sub-family VIII
Kd (PB1(5)): 61 nM
selectivity for PB1(5) over SMARCA2B (PB1(5)): ~34 fold
